In patent US20070218486A1, “Immunoassays, Haptens, Immunogens and Antibodies for Anti-HIV Therapeutics” (Ark Diagnostics, Inc., priority 2006, published 2007):
Structures can show the parent of a compound that is named as a salt. Where two headings read alike, the source gives them in different places.

Experiments:
Anti-(H12)2 = test: Specificity of the immunoassay (cross-reactivity in human serum); format: binding, rabbit; settings: 10 μg/mL of crossreactant plus 5 μg/mL of tipranavir in human serum
Procedure: Also antibody Anti-(H12)2 was used in this Example as part of an antibody reagent (“Anti-(H12)2 Antibody Reagent”) further comprising nicotinamide adenine dinucleotide, glucose-6-phosphate, sodium chloride, bulking agent, surfactant, and preservatives.
An immunoassay for tipranavir was conducted on the Cobas Mira Chemistry Analyzer (Roche). On the analyzer, 4 μL of sample plus 61 μL water were incubated for 300 sec with 150 μL of Anti-(H12)2 Antibody Reagent. […] After 25 sec incubation, enzyme activity was monitored by following the production of NADH spectrophotometrically at 340 nm for 50 sec.
Testing was performed on the Cobas Mira analyzer. The percentage concentration above 5 μg/mL of tipranavir was calculated for each crossreactant.

[1] = target: T1, mammalian DNA polymerases α (Homo sapiens, UniProt P09884); settings: cited from earlier work
T1 sequence (P09884 1-1462): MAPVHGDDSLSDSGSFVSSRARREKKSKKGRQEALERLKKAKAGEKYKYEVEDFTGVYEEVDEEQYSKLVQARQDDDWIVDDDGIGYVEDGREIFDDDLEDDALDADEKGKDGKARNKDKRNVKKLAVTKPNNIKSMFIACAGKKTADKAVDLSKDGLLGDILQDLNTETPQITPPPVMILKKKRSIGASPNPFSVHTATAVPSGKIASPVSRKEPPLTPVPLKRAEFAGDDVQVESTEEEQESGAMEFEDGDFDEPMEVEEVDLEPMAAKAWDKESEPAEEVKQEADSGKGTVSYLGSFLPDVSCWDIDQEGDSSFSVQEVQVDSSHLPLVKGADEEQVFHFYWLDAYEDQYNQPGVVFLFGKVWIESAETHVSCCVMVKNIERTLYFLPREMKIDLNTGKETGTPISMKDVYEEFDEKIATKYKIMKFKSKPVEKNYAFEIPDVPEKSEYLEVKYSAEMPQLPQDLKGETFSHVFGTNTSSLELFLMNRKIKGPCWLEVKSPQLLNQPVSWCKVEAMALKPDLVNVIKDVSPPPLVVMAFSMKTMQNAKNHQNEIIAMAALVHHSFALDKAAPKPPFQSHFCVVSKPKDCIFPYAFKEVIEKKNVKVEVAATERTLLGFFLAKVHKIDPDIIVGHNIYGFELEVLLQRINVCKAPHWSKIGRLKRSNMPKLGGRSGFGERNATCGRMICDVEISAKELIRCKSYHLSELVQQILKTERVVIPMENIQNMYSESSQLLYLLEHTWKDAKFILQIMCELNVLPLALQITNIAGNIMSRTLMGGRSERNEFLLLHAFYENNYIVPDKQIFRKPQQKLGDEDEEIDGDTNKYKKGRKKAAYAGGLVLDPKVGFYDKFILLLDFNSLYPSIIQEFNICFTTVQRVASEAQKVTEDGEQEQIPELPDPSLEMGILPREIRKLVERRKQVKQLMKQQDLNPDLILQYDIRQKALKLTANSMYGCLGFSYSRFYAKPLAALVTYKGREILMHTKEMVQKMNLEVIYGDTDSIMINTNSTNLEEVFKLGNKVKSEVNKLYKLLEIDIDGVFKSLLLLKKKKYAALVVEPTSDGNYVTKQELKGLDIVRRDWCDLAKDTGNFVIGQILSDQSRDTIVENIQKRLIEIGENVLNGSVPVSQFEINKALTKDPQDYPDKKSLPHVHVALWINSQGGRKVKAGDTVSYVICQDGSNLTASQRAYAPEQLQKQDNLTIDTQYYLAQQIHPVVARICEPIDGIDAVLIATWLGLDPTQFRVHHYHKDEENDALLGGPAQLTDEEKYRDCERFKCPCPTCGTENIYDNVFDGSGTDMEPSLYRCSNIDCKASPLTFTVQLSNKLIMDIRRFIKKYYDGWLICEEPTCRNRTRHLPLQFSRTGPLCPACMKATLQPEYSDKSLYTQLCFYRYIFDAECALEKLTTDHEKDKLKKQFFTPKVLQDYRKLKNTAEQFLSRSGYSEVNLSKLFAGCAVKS

[2] = target: mammalian DNA polymerases β (Homo sapiens, UniProt P06746); settings: cited from earlier work
[3] = target: T2, mitochondrial DNA polymerase γ (Homo sapiens, UniProt P54098); settings: cited from earlier work
T2 sequence (P54098 1-1239): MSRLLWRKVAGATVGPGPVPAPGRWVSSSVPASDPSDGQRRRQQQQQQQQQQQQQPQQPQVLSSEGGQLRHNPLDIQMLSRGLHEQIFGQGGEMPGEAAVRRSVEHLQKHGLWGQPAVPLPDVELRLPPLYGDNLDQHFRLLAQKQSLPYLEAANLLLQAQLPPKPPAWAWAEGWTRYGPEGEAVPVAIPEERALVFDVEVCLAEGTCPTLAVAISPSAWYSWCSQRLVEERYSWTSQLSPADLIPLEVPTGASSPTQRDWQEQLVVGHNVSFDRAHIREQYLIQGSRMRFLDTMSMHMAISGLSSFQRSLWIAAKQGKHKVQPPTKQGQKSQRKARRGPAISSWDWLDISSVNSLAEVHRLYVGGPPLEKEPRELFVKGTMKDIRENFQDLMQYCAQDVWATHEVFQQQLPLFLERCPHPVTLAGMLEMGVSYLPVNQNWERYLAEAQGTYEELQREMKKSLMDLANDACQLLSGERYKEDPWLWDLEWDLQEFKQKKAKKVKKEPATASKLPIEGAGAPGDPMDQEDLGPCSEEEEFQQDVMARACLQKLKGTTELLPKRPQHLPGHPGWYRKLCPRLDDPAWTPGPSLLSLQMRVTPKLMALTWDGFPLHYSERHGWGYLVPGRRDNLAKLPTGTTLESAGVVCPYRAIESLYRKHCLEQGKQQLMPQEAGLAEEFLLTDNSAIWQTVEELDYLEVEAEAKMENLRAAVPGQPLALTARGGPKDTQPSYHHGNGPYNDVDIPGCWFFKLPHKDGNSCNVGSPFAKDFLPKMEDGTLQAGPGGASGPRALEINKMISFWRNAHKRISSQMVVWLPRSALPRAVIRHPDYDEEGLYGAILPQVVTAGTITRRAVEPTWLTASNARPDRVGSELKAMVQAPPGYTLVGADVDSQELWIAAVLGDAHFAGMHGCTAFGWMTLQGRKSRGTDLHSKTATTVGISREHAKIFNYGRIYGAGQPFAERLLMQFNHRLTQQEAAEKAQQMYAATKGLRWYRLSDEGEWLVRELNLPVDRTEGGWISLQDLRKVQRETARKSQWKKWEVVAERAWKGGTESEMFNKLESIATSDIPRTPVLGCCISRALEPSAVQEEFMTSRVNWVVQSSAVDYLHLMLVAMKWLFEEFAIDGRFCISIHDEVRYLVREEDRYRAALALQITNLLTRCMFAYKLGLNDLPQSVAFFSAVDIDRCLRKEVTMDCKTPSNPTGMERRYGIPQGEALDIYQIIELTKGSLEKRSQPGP

[4] = cited from earlier work
[5] = cited from earlier work; remark: listed apart in the source
primary hepatocyte [6] = settings: human; cited from earlier work
primary hepatocyte [7] = settings: dog; cited from earlier work
primary hepatocyte [8] = settings: rat; cited from earlier work
[9] = dogs; cited from earlier work
[10] = rats; cited from earlier work
CYP450 enzymes = settings: in vitro; cited from earlier work

Cc1c(O)cccc1C(=O)N[C@@H](CSc1ccccc1)[C@H](O)CN1C[C@H]2CCCC[C@H]2C[C@H]1C(=O)NC(C)(C)C [Nelfinavir]
Percent Increase in Apparent Tipranavir (Anti-(H12)2): 0%

CC(Cn1cnc2c(N)ncnc21)OCP(=O)(O)OP(=O)(O)OP(=O)(O)O (stereo in doubt) [Tenofovir diphosphate]
inhibition of DNA polymerase α [1]: weak inhibitor | inhibition of DNA polymerase β [2]: weak inhibitor | inhibition of mitochondrial DNA polymerase γ [3]: weak inhibitor

O=C1Nc2ccc(Cl)cc2[C@@](C#CC2CC2)(C(F)(F)F)O1 [Efavirenz]
Percent Increase in Apparent Tipranavir (Anti-(H12)2): 0%

2′-deoxy-3′-thiacytidine [Lamivudine]
absolute bioavailability ([4]; adults): approximately 82% | absolute bioavailability ([4]; children): ~68% | time to maximum serum concentrations after the dose ([4]; oral administration): 0.5 to 1.5 h | oral dose eliminated renally as unchanged drug ([4]; oral dose): approximately 70% | secretion into breast milk ([4]; postpartum women): secreted into breast milk | placental transfer ([4]; pregnant women): diffuses freely across the placenta | systemic exposure (AUC) when administered with food ([4]; with food): not altered | Percent Increase in Apparent Tipranavir (Anti-(H12)2): 0%

CC(C)OC(=O)OCOP(=O)(CO[C@H](C)Cn1cnc2c(N)ncnc21)OCOC(=O)OC(C)C [Tenofovir disoproxil fumarate]
administered dose recovered in urine ([5]; multiple oral doses 300 mg once daily (under fed conditions), over 24 hours): 32±10%

CC(C)c1nc(CN(C)C(=O)N[C@H](C(=O)N[C@@H](Cc2ccccc2)C[C@H](O)[C@H](Cc2ccccc2)NC(=O)OCc2cncs2)C(C)C)cs1 [Ritonavir]
Percent Increase in Apparent Tipranavir (Anti-(H12)2): 0%

CCC[C@@]1(CCc2ccccc2)CC(O)=C([C@H](CC)c2cccc(NS(=O)(=O)c3ccc(C(F)(F)F)cn3)c2)C(=O)O1 [Tipranavir]
stability in primary hepatocyte incubations (primary hepatocyte [6]): stable | stability in primary hepatocyte incubations (primary hepatocyte [7]): stable | stability in primary hepatocyte incubations (primary hepatocyte [8]): stable | plasma metabolic profile [9]: only the parent drug | plasma metabolic profile [10]: only the parent drug

Tenofovir
substrate of CYP450 enzymes (CYP450 enzymes): neither tenofovir disoproxil nor tenofovir are substrates of CYP450 enzymes | dose recovered in the urine as unchanged tenofovir ([5]; IV administration, within 72 hours of dosing): 70-80% | terminal elimination half-life ([5]; single dose, oral administration of Tenofovir disoproxil fumarate): approximately 17 hours

Cc1cccc(C)c1OCC(=O)N[C@@H](Cc1ccccc1)[C@@H](O)C[C@H](Cc1ccccc1)NC(=O)[C@H](C(C)C)N1CCCNC1=O [Lopinavir]
Percent Increase in Apparent Tipranavir (Anti-(H12)2): 0%

CC(C)OC(=O)OCOP(=O)(CO[C@H](C)Cn1cnc2c(N)ncnc21)OCOC(=O)OC(C)C [tenofovir disoproxil]
substrate of CYP450 enzymes (CYP450 enzymes): neither tenofovir disoproxil nor tenofovir are substrates of CYP450 enzymes

CC(C)CN(C[C@@H](O)[C@H](Cc1ccccc1)NC(=O)O[C@H]1CCOC1)S(=O)(=O)c1ccc(N)cc1 [Amprenavir]
Percent Increase in Apparent Tipranavir (Anti-(H12)2): 0%

CC(C)(C)NC(=O)[C@@H]1C[C@@H]2CCCC[C@@H]2CN1C[C@@H](O)[C@H](Cc1ccccc1)NC(=O)[C@H](CC(N)=O)NC(=O)c1ccc2ccccc2n1 [Saquinavir]
Percent Increase in Apparent Tipranavir (Anti-(H12)2): 0%

CC(C)(C)NC(=O)[C@@H]1CN(Cc2cccnc2)CCN1C[C@@H](O)C[C@@H](Cc1ccccc1)C(=O)N[C@H]1c2ccccc2C[C@H]1O [Indinavir]
Percent Increase in Apparent Tipranavir (Anti-(H12)2): 0%
